Strand notation (5' to 3'): a small letter for the sugar, then the base; units joined by * are phosphorothioate-linked, units joined directly phosphodiester-linked; [ ] holds rarer units or linkages, { } end groups; capitals alone tell only the bases. e = 2'-O-(2-methoxyethyl) (MOE); [5mC] = 5-methylcytosine; d = 2'-deoxy (DNA)
Key:
[1] = Tolerability in CD1 mice: body weight and organ weight (Example 41); conditions: 50 mg/kg s.c. twice per week for 6 weeks
Factor 11 activity = assay: Factor 11 protein activity, F11 assay based on clotting time (Example 45); type: in vivo, cynomolgus monkeys
Protocol: Groups, each consisting of two male and three female monkeys, were injected subcutaneously with ISIS 416838, ISIS 416850, ISIS 416858, ISIS 416864, or ISIS 417002 in escalating doses. Antisense oligonucleotide was administered to the monkeys at 5 mg/kg three times per a week for week 1; 5 mg/kg twice per week for weeks 2 and 3; 10 mg/kg three times per week for week 4; 10 mg/kg twice per week for weeks 5 and 6; 25 mg/kg three times per week for week 7; and 25 mg/kg twice per week for weeks 8, 9, 10, 11, and 12. One control group, consisting of two male and three female monkeys, was injected subcutaneously with PBS according to the same dosing regimen. An additional experimental group, consisting of two male and three female monkeys, was injected subcutaneously with ISIS 416850 in a chronic, lower dose regimen. Antisense oligonucleotide was administered to the monkeys at 5 mg/kg three times per week for week 1; 5 mg/kg twice per week for week 2 and 3; 10 mg/kg three times per week for week 4; and 10 mg/kg twice per week for weeks 5 to 12. Body weights were measured weekly. Blood samples were collected 14 days and 5 days before the start of treatment and subsequently once per week for Factor 11 protein activity analysis in plasma, fibrinogen measurement, PT and aPTT measurements, bleeding times, and measurement of various hematologic factors. On day 85, the monkeys were euthanized by exsanguination while under deep anesthesia, and organs harvested for further analysis.
Blood samples were collected at various time points and Factor 11 proenzyme was measured using a F11 assay based on clotting time. Clotting times were determined in duplicate with a ST4 semi-automated coagulation instrument (Diagnostica Stago, NJ). Thirty μl of citrated sample plasma diluted 1/20 in HEPES-NaCl buffer with BSA was incubated with 30 μl aPTT reagent (Automated aPTT, Organon Technika, NC) and 30 μl of citrated plasma deficient of Factor 11 (George King Bio-Medical Inc.) at 37° C. for 5 min, followed by the addition of 30 μl of 25 mM CaCl2) to initiate clotting. Results were interpolated on a standard curve of serially diluted citrated control plasma.
Results are presented in Table 118 as percent inhibition of Factor 11 activity, relative to PBS control. The ISIS oligonucleotide, ISIS 416850, given with the chronic dose regimen is distinguished from the other oligonucleotides with an asterisk (*).

[2] = Tolerability in Sprague-Dawley rats: hematology assays (Example 35); conditions: 50 mg/kg s.c. twice per week for 6 weeks
Protocol: A control group of four Sprague Dawley rats was injected subcutaneously with PBS twice per week for 6 weeks. Body weight measurements were taken before and throughout the treatment period. Urine samples were taken before the start of treatment. Three days after the last dose, urine samples were taken and the rats were sacrificed. Organ weights were measured and blood was collected for further analysis.
Blood obtained from all rat groups were sent to Antech Diagnostics for hematocrit (HCT), mean corpuscular volume (MCV), mean corpuscular hemoglobin (MCV), and mean corpuscular hemoglobin concentration (MCHC) measurements and analyses, as well as measurements of various blood cells, such as WBC (neutrophils, lymphocytes and monocytes), RBC, and platelets as well as hemoglobin content.

[3] = Tolerability in CD1 mice: liver function (Example 43); type: in vivo; parameters: Albumin: unit not given here; conditions: 50 mg/kg s.c. twice per week for 6 weeks, plasma
[4] = Tolerability in CD1 mice: body weight and organ weight (Example 43); type: in vivo; conditions: 50 mg/kg s.c. twice per week for 6 weeks, at the end of the study
Source text: The body weights of the mice taken at the end of the study are presented in Table 104 and are expressed in grams.

With “ISIS 416850: MOE gapmer, nucleobases 1275 to 1318 of SEQ ID NO: 1 (Table 8) (antisense TGCACAGTTTCTGGCAGGCC; MOE gapmer, wing and gap sizes not given here)” the body weight ([1]; increase in grams over the PBS control weight taken before the start of treatment) was 11 g, the Kidney weight ([1]; percentage of the body weight) was 1.5% and the Liver weight ([1]; percentage of the body weight) was 6%. The Spleen weight ([1]; percentage of the body weight) was 0.4%, the “percent inhibition of Factor 11 activity, relative to PBS control” value (from here on “percent inhibition … relative to PBS control”) (Factor 11 activity; day 8, chronic dose regimen (*)) was 6% and the “percent inhibition … relative to PBS control” value (Factor 11 activity; day 8, escalating dose regimen) was 8%. For the same substance, the “percent inhibition … relative to PBS control” value (Factor 11 activity; day 15, chronic dose regimen (*)) was 13%, the “percent inhibition … relative to PBS control” value (Factor 11 activity; day 15, escalating dose regimen) was 4% and the “percent inhibition … relative to PBS control” value (Factor 11 activity; day 22, chronic dose regimen (*)) was 12%. The “percent inhibition … relative to PBS control” value (Factor 11 activity; day 22, escalating dose regimen) was 11%, the “percent inhibition … relative to PBS control” value (Factor 11 activity; day 29, chronic dose regimen (*)) was 20% and the “percent inhibition … relative to PBS control” value (Factor 11 activity; day 29, escalating dose regimen) was 15%. For the same substance, the “percent inhibition … relative to PBS control” value (Factor 11 activity; day 36, chronic dose regimen (*)) was 24%, the “percent inhibition … relative to PBS control” value (Factor 11 activity; day 36, escalating dose regimen) was 17% and the “percent inhibition … relative to PBS control” value (Factor 11 activity; day 43, chronic dose regimen (*)) was 24%. The “percent inhibition … relative to PBS control” value (Factor 11 activity; day 43, escalating dose regimen) was 23%, the “percent inhibition … relative to PBS control” value (Factor 11 activity; day 50, chronic dose regimen (*)) was 30% and the “percent inhibition … relative to PBS control” value (Factor 11 activity; day 50, escalating dose regimen) was 42%. For the same substance, the “percent inhibition … relative to PBS control” value (Factor 11 activity; day 57, escalating dose regimen) was 49%, the “percent inhibition … relative to PBS control” value (Factor 11 activity; day 64, escalating dose regimen) was 55% and the “percent inhibition … relative to PBS control” value (Factor 11 activity; day 71, escalating dose regimen) was 57%. For the same substance, the “percent inhibition … relative to PBS control” value (Factor 11 activity; day 78, escalating dose regimen) was 63%, the “percent inhibition … relative to PBS control” value (Factor 11 activity; day 85, escalating dose regimen) was 64% and the “percent inhibition … relative to PBS control” value (Factor 11 activity; day −5, chronic dose regimen (*)) was 1%. The “percent inhibition … relative to PBS control” value (Factor 11 activity; day −5, escalating dose regimen) was 0%, the “percent inhibition … relative to PBS control” value (Factor 11 activity; day −14, chronic dose regimen (*)) was 0% and the “percent inhibition … relative to PBS control” value (Factor 11 activity; day −14, escalating dose regimen) was 0%. For the same substance, the Platelets [2] was 26 10^3/μL, the RBC [2] was 7 and the WBC [2] was 16 nL⁻¹. For the same substance, the lymphocytes [2] was 8%, the monocytes [2] was 11% and the neutrophils [2] was 48%. For the same substance, the HCT ([2]; title says % control) was 5%, the MCH ([2]; title says % control) was 4 and the MCHC ([2]; title says % control) was 2%. For the same substance, the MCV ([2]; title says % control) was 3.
In the case of “ISIS 449707: 3-8-3, 4-8-4, 2-10-2, 3-10-3 or 4-10-4 MOE microwalk gapmer (Table 46) (antisense e[5mC]*eA*e[5mC]*eA*dG*dT*dT*dT*d[5mC]*dT*dG*dG*e[5mC]*eA*eG*eG)”, the ALT [3] is reported as 41 IU/L, the AST [3] is reported as 62 IU/L and the Albumin [3] is reported as 2.3. It also gave a Bilirubin [3] of 0.19 mg/dL and a body weight [4] of 42 g.
“ISIS 449708: 3-8-3, 4-8-4, 2-10-2, 3-10-3 or 4-10-4 MOE microwalk gapmer (Table 46) (antisense eA*e[5mC]*eA*dG*dT*dT*dT*d[5mC]*dT*dG*dG*e[5mC]*eA*eG)” showed an ALT [3] of 66 IU/L, an AST [3] of 103 IU/L and an Albumin [3] of 2.8. For the same substance, the Bilirubin [3] was 0.17 mg/dL and the body weight [4] was 40 g.
For “ISIS 449709: 3-8-3, 4-8-4, 2-10-2, 3-10-3 or 4-10-4 MOE microwalk gapmer (Table 46) (antisense eG*e[5mC]*eA*e[5mC]*dA*dG*dT*dT*dT*d[5mC]*dT*dG*dG*d[5mC]*eA*eG*eG*e[5mC])”, the ALT [3] was 62 IU/L, the AST [3] was 83 IU/L and the Albumin [3] was 2.8. The Bilirubin [3] was 0.18 mg/dL and the body weight [4] was 40 g.
For “ISIS 449710: 3-8-3, 4-8-4, 2-10-2, 3-10-3 or 4-10-4 MOE microwalk gapmer (Table 46) (antisense e[5mC]*eA*e[5mC]*dA*dG*dT*dT*dT*d[5mC]*dT*dG*dG*d[5mC]*eA*eG*eG)”, the ALT [3] was 43 IU/L, the AST [3] was 95 IU/L and the Albumin [3] was 2.8. For the same substance, the Bilirubin [3] was 0.18 mg/dL and the body weight [4] was 42 g.
With “ISIS 449711: 3-8-3, 4-8-4, 2-10-2, 3-10-3 or 4-10-4 MOE microwalk gapmer (Table 46) (antisense eA*e[5mC]*dA*dG*dT*dT*dT*d[5mC]*dT*dG*dG*d[5mC]*eA*eG)” the ALT [3] was 52 IU/L, the AST [3] was 83 IU/L and the Albumin [3] was 2.8. The Bilirubin [3] was 0.22 mg/dL and the body weight [4] was 42 g.

From patent US20230263822A1, “MODULATION OF FACTOR 11 EXPRESSION” (Ionis Pharmaceuticals, Inc., priority 2008, published 2023)
